Several values for one entry are separate records, joined by “and”; a condition that tells them apart may be missing. Identical values can stand only once.
B1: Agrocybe aegerita unspecific peroxygenase AaeUPO (isoform II), wild-type, SEQ ID NO 3 (Cyclocybe aegerita) (protein)
chain: EPGLPPGPLENSSAKLVNDEAHPWKPLRPGDIRGPCPGLNTLASHGYLPRNGVATPVQIINAVQEGLNFDNQAAVFATYAAHLVDGNLITDLLSIGRKTRLTGPDPPPPASVGGLNEHGTFEGDASMTRGDAFFGNNHDFNETLFEQLVDYSNRFGGGKYNLTVAGELRFKRIQDSIATNPNFSFVDFRFFTAYGETTFPANLFVDGRRDDGQLDMDAARSFFQFSRMPDDFFRAPSPRSGTGVEVVIQAHPMQPGRNVGKINSYTVDPTSSDFSTPCLMYEKFVNITVKSLYPNPTVQLRKALNTNLDFFFQGVAAGCTQVFPYGRD
notes: is a wild-type (i.e. non-recombinant) peroxygenase purified from cultures of A. aegerita TM-A1; made in house; host or cells: Agrocybe aegerita TM-A1 cultures (native producer, non-recombinant)

Key:
[1] = tested on: Chaetomium globosum unspecific peroxygenase CglUPO, wild-type, SEQ ID NO 1; test: Enzyme kinetics of isophorone hydroxylation (GC-MS product quantification); format: biochemical; conditions: 6.25-6400 µM substrate, 100 nM enzyme, 0.5 mM H2O2, 3 min, mean of three replicates with standard errors
Text: (§1) AaeUPO (isoform II, 46 kDa), the first UPO described in 2004 (R. Ullrich and M. Hofrichter, FEBS Lett. 2005, 579, 6247-6250), is a wild-type (i.e. non-recombinant) peroxygenase purified from cultures of A. aegerita TM-A1, grown in soybean-peptone medium. MroUPO is another wild-type peroxygenase (32 kDa) purified from cultures of M. rotula DSM-25031 (German Collection of Microorganisms and Cell Cultures, Braunschweig). CglUPO (36 kDa) is a third wild-type peroxygenase recently purified from cultures of C. globosum DSM-62110.
Reactions were carried out with 6.25-6400 µM substrate and 100 nM enzyme. They were initiated adding 0.5 mM H2O2 and stopped by vigorous shaking in 5 mM sodium azide. Reaction times in which the reaction velocity was linear were previously selected: 5 min for AaeUPO, 3 min for CglUPO and 1 min for rHinUPO. All reactions were performed in triplicates. Product quantification was carried out by GC-MS using external standard curves, and kinetic parameters - turnover number (kcat), Michaelis constant (Km) and catalytic efficiency (kcat/Km) - were obtained by fitting the data to the Michaelis-Menten equation, or the corresponding variation of this equation when substrate inhibition is occurring, using SigmaPlot (Systat Softwarwe Inc., San Jose, CA, USA). […]

[2] = tested on: Humicola insolens unspecific peroxygenase rHinUPO, recombinant protein, SEQ ID NO 2; test: as above; format: biochemical; conditions: 6.25-6400 µM substrate, 100 nM enzyme, 0.5 mM H2O2, 1 min, mean of three replicates with standard errors
Text: The rCciUPO (44 kDa) and rHinUPO recombinant enzymes were provided by Novozymes A/S. rCciUPO corresponds to the protein model 7249 from the sequenced C. cinerea genome available at the JGI (http://genome.jgi.doe.gov/Copci1) used in several studies (E. D. Babot, J. C. del Río, L. Kalum, A. T. Martínez and A. Gutiérrez, Biotechnol. Bioeng. 2013, 110, 2332; E. D. Babot, J. C. del Río, M. Cañellas, F. Sancho, F. Lucas, V. Guallar, L. Kalum, H. Lund, G. Gröbe, K. Scheibner, R. Ullrich, M. Hofrichter, A. T. Martínez and A. Gutiérrez, Appl. Environ. Microbiol. 2015, 81, 4130-4142; E. D. Babot, J. C. del Río, L. Kalum, A. T. Martínez and A. Gutiérrez, ChemCatChem 2015, 7, 283-290). The rHinUPO sequence has been more recently reported (Patent US 9908860 B2) and used for oxyfunctionalizations that are not catalyzed by other UPOs. Both UPOs were expressed in Aspergillus oryzae (patent WO/2008/119780).
Reactions were carried out with 6.25-6400 µM substrate and 100 nM enzyme. […] Product quantification was carried out by GC-MS using external standard curves, and kinetic parameters - turnover number (kcat), Michaelis constant (Km) and catalytic efficiency (kcat/Km) - were obtained by fitting the data to the Michaelis-Menten equation, or the corresponding variation of this equation when substrate inhibition is occurring, using SigmaPlot (Systat Softwarwe Inc., San Jose, CA, USA). […]

CYP102A1 variants = conditions: isophorone hydroxylation; when decoy molecules were used; range over variants; cited from earlier work
[3] = substrate: CC1=CC(=O)CC(C)(C)C1; test: Enzyme kinetics of isophorone hydroxylation (GC-MS product quantification); format: biochemical, Agrocybe aegerita; conditions: other: isophorone hydroxylation; 6.25-6400 µM substrate, 100 nM enzyme, 0.5 mM H2O2, 5 min; mean of three replicates with standard errors
Text: as §1
Reactions were carried out with 6.25-6400 µM substrate and 100 nM enzyme. They were initiated adding 0.5 mM H2O2 and stopped by vigorous shaking in 5 mM sodium azide. Reaction times in which the reaction velocity was linear were previously selected: 5 min for AaeUPO, 3 min for CglUPO and 1 min for rHinUPO. All reactions were performed in triplicates. Product quantification was carried out by GC-MS using external standard curves, and kinetic parameters - turnover number (kcat), Michaelis constant (Km) and catalytic efficiency (kcat/Km) - were obtained by fitting the data to the Michaelis-Menten equation, or the corresponding variation of this equation when substrate inhibition is occurring, using SigmaPlot (Systat Softwarwe Inc., San Jose, CA, USA).
The analyses were performed with a Shimadzu GC-MS QP 2010 Ultra system, using a fused-silica DB-5HT capillary column (30 m × 0.25 mm internal diameter, 0.1 µm film thickness) from J&W Scientific. The oven was heated from 50 °C (1.5 min) to 90 °C (2 min) at 30 °C min^-1, and then from 90 °C to 250 °C (15 min) at 8 °C min^-1. The injection was performed at 250 °C and the transfer line was kept at 300 °C. Compounds were identified by comparing their mass spectra and retention times with those of the available authentic standards and with the NIST library.

Molecule | Km [1] [µM] | kcat [1] | Km [2] [µM] | kcat [2] [s⁻¹] | Km (CYP102A1 variants) [µM] | turnover numbers (CYP102A1 variants) [s⁻¹] | Km [3] [µM] | kcat [3] [s⁻¹] | kcat/Km [3]
CC1=CC(=O)CC(C)(C)C1 [isophorone, 3,5,5-Trimethyl-2-cyclohexen-1-one] | 243 ± 19.8 | 4.4 s⁻¹ and 3.8 ± 0.1 s⁻¹ | 288 ± 39.9 | 23.3 ± 1.4 | 380 to 440 | 2.5 to 5.5 | – | – | –
B1 | – | – | – | – | – | – | 1381.3 ± 196.7 | 20.1 ± 1.1 | 1.4±0.1 x 10^4 M^-1·s^-1

Source: patent publication EP3660147A1, “PROCESS FOR SELECTIVE SYNTHESIS OF 4-HYDROXYISOPHORONE AND 4-KETOISOPHORONE BY FUNGAL PEROXYGENASES” (Consejo Superior de Investigaciones Científicas (CSIC), priority 2018, dated 2020)
